Experimental data: patent publication US12414968B2, “Compositions comprising bacterially derived minicells and methods of using the same” (EnGeneIC Molecular Delivery Pty Ltd, priority 2018, dated 2025)

Experiments:
[1] = system: Adreno-cortical cancer cell lines ACC01 and ACC07; assay: MTS cell proliferation assay, ACC01 and ACC07; settings: 72 hrs, lines derived from Stage IV patients
Procedure: All cells were incubated for a further 72 hrs followed by the colorimetric MTS cell proliferation assay (Cory et al., Cancer Commun., 3(7): 207-12 (1991)) using the CellTiter 96 AQueous One Solution Cell Proliferation Assay (Promega Corp., Madison, Wis., USA), according to the manufacturer's instructions. The colorimetric measurements were read at 490 nm.

MiaPaca-2 cells = assay: MTS cell proliferation assay, MiaPaca-2; type: cell-based, human; settings: 72 hrs
MiaPaca-2 GemR cells = assay: MTS cell proliferation assay, MiaPaca-2 GemR; type: cell-based, human; settings: 72 hrs
[2] = system: Glioblastoma cell line U87-MG; assay: MTS cell proliferation assay, U87-MG; type: cell-based; settings: 72 hrs
human STING alleles = settings: Corrales et al., 2015, Fu et al.; cited from earlier work
[3] = system: human peripheral blood monocytes (PBMCs); settings: multiple donors with different STING genotypes; cited from earlier work
[4] = system: human breast cancer cell line MDA-MB-468; assay: MTS cell proliferation assay, MDA-MB-468; type: cell-based; settings: 72 hrs
[5] = system: human colorectal cancer cell lines Caco-2 and HCT116; assay: MTS cell proliferation assay, Caco-2 and HCT116; type: cell-based; settings: 72 hrs
[6] = system: bone marrow derived dendritic cells (BMDC) with CT26Ep12.1 cells; assay: BMDC / treated CT26Ep12.1 co-culture; type: cell-based, mouse; settings: 48 h co-incubation
Procedure: The effect of tumor cell death in response to Ep-EDV, Ep-EDV-682, and 682 treatment on dendritic cell maturation was also examined (FIGS. 27E-27I). Bone marrow derived dendritic cells (BMDC) were co-incubated with treated tumor cells (4T1 and CT26Ep12.1) for 48 h, followed by assessment of the production of the type 1 interferons IFNα and IFNβ. Increases in type 1 interferon production by dendritic cells is well established as a mechanism of dendritic cell maturation and enhanced antigen presentation as well as being vital for their interaction with other immune cell subsets including NK cells and T-cells (Fitzgerald-Bocarsly and Feng, 2007; Simmons et al., 2012).
Bone Marrow Derived DCs (BMDC): Bone marrow was isolated from the femurs and tibias of Balb/c mice. […]
Macrophage and DC/Tumor Cell Co-cultures: CT26Ep12.1 and 4T1 cells were harvested with Versene (Gibco) and cells were collected in 1 mL Eppendorf tubes. […] RAW264.7/tumor cell co-cultures were collected using a cell scraper and samples were stained with DAPI (Sigma), anti-CD45 Brilliant Violet 510 (BioLegend), anti-CD86 APC-Cy7, and anti-CD206 AF488 and assessed by flow cytometry. […] RNA concentration was determined on an Eppendorf biophotometer plus. […] Data was exported to excel and the relative quantitation was calculated from the ΔΔCt.

[7] = system: A549 (lung cancer) xenografts; assay: A549 xenograft, EDVsDox with IFN-γ (FIG. 20); type: in vivo, Balb/c nu/nu mice; settings: i.v. tail vein; IFN-γ 0.5 × 10^4 IU per dose
Source text: (§1) Lung cancer: To study the anti-tumor effects of combining ^EGFREDVsDox and IFN-γ (type II IFN) in a lung cancer model, A549 (lung cancer) xenografts in Balb/c nu/nu mice were established and divided into four groups receiving different treatment combinations by intravenous tail vein injection. Group 1 received sterile physiological saline (FIG. 20, open diamonds). Group 2 received IFN-γ (0.5×10^4 IU) per dose (FIG. 20, solid triangles). Group 3 received ^EGFREDVsDox (FIG. 20, solid squares). Group 4 received ^EGFREDVsDox and IFN-γ (0.5×10^4 IU) per dose (FIG. 20, solid circles).

MDA-MB 468 xenografts = assay: MDA-MB 468 breast cancer xenograft, EDVsDox with IFN-γ (FIGS. 21, 22); type: in vivo, Balb/c nu/nu mice; settings: IFN-γ 0.5 × 10^4 IU per dose
Source text: as §1, with “Breast” for “Lung”, “IFN-γ” for “IFN-γ (type II IFN)”, “breast” for “lung”, “MDA-MB 468” for “A549 (lung cancer)”, “21,” for “20,”

O=C1c2c(O)ccc(O)c2C(=O)c2c(NCCNCCO)ccc(NCCNCCO)c21 [mitoxantrone]
cytotoxic effect / resistance of the cell lines [1]: highly resistant

COC(=O)c1cc2c([nH]1)C(=O)C=C1N(C(=O)c3cc4cc(OC)c(OC)c(OC)c4[nH]3)C[C@H]3C[C@]123 [duocarmycin]
cytotoxic effect / resistance of the cell lines [1]: potent cytotoxic effects

O=c1[nH]cc(F)c(=O)[nH]1 [5-Fluoro Uracil (5-FU), 5-Fluoro Uracil]
inhibition of proliferation / resistance of the cells (MiaPaca-2 cells): resistant

Clc1ccc(C(c2ccccc2Cl)C(Cl)Cl)cc1 (stereo not drawn) [mitotane]
cytotoxic effect / resistance of the cell lines [1]: highly resistant

Nc1ccn([C@@H]2O[C@H](CO)[C@@H](O)C2(F)F)c(=O)n1 [gemzar]
inhibition of proliferation / resistance of the cells (MiaPaca-2 cells): resistant | inhibition of proliferation / resistance of the cells (MiaPaca-2 GemR cells): resistant

CC(=O)O[C@H]1C(=O)[C@@]2(C)[C@H]([C@H](OC(=O)c3ccccc3)[C@]3(O)C[C@H](OC(=O)[C@H](O)[C@@H](NC(=O)c4ccccc4)c4ccccc4)C(C)=C1C3(C)C)[C@]1(OC(C)=O)CO[C@@H]1C[C@@H]2O [paclitaxel IVAX, paclitaxel]
inhibition of proliferation / resistance of the cell line [2]: resistant

CCc1c2c(nc3ccc(OC(=O)N4CCC(N5CCCCC5)CC4)cc13)-c1cc3c(c(=O)n1C2)COC(=O)[C@]3(O)CC [irinotecan]
inhibition of proliferation / resistance of the cells (MiaPaca-2 cells): resistant

CN(Cc1cnc2nc(N)nc(N)c2n1)c1ccc(C(=O)N[C@@H](CCC(=O)O)C(=O)O)cc1 [mathotrxate]
inhibition of proliferation / resistance of the cells (MiaPaca-2 cells): resistant

Nc1ncnc2c1ncn2[C@@H]1O[C@@H]2COP(O)(=S)O[C@@H]3C(O)[C@@H](COP(O)(=S)O[C@H]2[C@H]1O)O[C@H]3n1cnc2c(N)ncnc21 (stereo partly drawn) [ML RR-S2 CDA]
activation of human STING alleles (human STING alleles): broadly activate all known human STING alleles | expression of IFN-β [3]: dose-dependent expression of IFN-β

COc1cccc2c1C(=O)c1c(O)c3c(c(O)c1C2=O)C[C@@](O)(C(=O)CO)C[C@@H]3O[C@H]1C[C@H](N)[C@H](O)[C@H](C)O1 [doxorubicin]
inhibition of proliferation / resistance of the cell line [4]: resistant | inhibition of proliferation / resistance of the cell lines [5]: resistant | inhibition of proliferation / resistance of the cell line [2]: resistant | inhibition of proliferation / resistance of the cells (MiaPaca-2 cells): resistant | increase in IFNβ mRNA production [6]: ~5 fold | cytotoxic effect / resistance of the cell lines [1]: highly resistant

CC(=O)O[C@H]1C(=O)[C@@]2(C)[C@H]([C@H](OC(=O)c3ccccc3)[C@]3(O)C[C@H](OC(=O)[C@H](O)[C@@H](NC(=O)c4ccccc4)c4ccccc4)C(C)=C1C3(C)C)[C@]1(OC(C)=O)CO[C@@H]1C[C@@H]2O [paclitaxel]
inhibition of proliferation / resistance of the cell line [4]: resistant | cytotoxic effect / resistance of the cell lines [1]: highly resistant

CC(=O)O[C@@]12CO[C@@H]1C[C@H](O)[C@@]1(C)C(=O)[C@H](O)C3=C(C)[C@@H](OC(=O)[C@H](O)[C@@H](NC(=O)OC(C)(C)C)c4ccccc4)C[C@@](O)([C@@H](OC(=O)c4ccccc4)[C@H]21)C3(C)C [docetaxel]
inhibition of proliferation / resistance of the cell line [4]: resistant

O=C1[O][Pt]2([NH][C@@H]3CCCC[C@H]3[NH]2)[O]C1=O [oxaliplatin]
inhibition of proliferation / resistance of the cells (MiaPaca-2 cells): resistant

B1: IFN-γ: type II interferon, given free at 0.5 or 0.75 × 10^4 IU per dose (protein, UniProt P01580 23-155, looked up)
Interferon gamma: HGTVIESLESLNNYFNSSGIDVEEKSLFLDIWRNWQKDGDMKILQSQIISFYLRLFEVLKDNQAISNNISVIESHLITTFFSNSKAKKDAFMSIAKFEVNNPQVQRQAFNELIRVVHQLLPESSLRKRKRSRC
Results: anti-tumor efficacy [7]: no anti-tumor efficacy | Results: anti-tumor efficacy, Exp. #2 (FIG. 22) (MDA-MB 468 xenografts; listed as IFN-): no anti-tumor efficacy | Results: anti-tumor efficacy, Exp. #1 (FIG. 21) (MDA-MB 468 xenografts; i.v. tail vein): no anti-tumor efficacy
